Usually IC50 stands for the concentration that inhibits the measured activity by half.

For the assay, the target named is T1, human acetyl-CoA carboxylase 2 (ACC2) (Homo sapiens, UniProt O00763).
T1 construct: The cDNA encoding amino acids 144 to 2458 of human acetyl-CoA carboxylase 2; made in house; host or cells: Sf9 insect cells (baculovirus, pFastBac1)
T1 sequence (O00763 144-2458): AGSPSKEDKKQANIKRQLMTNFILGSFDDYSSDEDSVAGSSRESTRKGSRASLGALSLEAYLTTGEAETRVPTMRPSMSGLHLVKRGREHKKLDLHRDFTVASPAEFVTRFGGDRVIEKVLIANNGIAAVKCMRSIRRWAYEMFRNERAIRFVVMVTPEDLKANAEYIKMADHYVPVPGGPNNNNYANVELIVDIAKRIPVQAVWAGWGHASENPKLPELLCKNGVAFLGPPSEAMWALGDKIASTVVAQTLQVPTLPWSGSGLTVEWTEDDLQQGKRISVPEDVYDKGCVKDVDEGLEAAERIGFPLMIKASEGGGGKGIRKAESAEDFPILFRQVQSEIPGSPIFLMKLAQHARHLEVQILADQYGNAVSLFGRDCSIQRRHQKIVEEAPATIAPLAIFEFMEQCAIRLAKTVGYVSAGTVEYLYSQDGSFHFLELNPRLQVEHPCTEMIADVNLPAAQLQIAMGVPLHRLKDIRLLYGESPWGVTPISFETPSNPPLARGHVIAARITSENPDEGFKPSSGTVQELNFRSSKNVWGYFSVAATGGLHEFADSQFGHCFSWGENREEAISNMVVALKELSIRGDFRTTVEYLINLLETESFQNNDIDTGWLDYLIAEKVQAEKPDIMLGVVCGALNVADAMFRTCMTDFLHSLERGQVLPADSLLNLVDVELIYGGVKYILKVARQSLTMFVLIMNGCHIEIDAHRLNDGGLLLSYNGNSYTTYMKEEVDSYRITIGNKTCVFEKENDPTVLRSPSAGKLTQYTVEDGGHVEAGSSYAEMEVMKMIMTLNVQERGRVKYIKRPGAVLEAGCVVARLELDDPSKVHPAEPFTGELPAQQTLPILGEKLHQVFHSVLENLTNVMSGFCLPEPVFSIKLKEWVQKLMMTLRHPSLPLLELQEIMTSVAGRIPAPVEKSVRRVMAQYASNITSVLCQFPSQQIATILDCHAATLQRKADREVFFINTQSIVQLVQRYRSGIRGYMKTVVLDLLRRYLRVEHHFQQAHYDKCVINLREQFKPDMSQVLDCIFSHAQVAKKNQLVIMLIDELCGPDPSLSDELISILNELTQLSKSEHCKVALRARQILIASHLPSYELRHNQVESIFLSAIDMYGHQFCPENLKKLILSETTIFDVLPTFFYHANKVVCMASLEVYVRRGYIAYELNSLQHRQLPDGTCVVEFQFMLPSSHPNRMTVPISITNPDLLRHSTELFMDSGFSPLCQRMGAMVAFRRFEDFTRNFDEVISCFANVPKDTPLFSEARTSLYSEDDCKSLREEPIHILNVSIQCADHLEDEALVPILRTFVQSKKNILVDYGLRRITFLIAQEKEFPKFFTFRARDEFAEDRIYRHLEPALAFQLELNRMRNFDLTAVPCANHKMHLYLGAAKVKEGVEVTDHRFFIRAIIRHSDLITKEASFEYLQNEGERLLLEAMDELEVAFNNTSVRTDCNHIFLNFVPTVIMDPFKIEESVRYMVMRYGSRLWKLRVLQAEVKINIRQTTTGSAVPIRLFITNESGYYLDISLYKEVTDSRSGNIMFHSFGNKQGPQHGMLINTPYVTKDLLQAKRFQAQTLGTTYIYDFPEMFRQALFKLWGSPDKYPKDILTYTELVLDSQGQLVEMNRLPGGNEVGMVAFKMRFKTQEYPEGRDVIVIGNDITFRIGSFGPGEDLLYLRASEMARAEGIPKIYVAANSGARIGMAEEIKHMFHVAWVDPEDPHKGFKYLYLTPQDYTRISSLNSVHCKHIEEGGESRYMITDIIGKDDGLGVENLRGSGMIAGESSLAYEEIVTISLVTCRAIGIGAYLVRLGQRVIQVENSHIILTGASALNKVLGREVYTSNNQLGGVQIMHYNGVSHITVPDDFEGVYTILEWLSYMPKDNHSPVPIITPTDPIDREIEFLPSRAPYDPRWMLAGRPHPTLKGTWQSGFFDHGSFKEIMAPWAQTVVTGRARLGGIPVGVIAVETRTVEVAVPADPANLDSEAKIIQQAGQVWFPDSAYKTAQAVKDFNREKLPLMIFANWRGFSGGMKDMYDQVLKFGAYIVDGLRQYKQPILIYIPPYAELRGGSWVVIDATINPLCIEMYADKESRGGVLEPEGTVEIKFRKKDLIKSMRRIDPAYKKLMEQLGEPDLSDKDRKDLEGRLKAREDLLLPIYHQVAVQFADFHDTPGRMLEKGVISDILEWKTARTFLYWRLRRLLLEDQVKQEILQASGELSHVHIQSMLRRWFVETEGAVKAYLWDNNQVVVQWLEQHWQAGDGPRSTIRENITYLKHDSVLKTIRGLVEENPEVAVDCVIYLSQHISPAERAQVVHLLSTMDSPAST
In words: Acetyl-CoA carboxylase enzyme assay (malonyl-CoA formation by LC/MS/MS). It is filed as biochemical. The settings on record: recombinant human ACC2 (aa 144-2458); read-out: IC50 ACC2. Summed up: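 Malonyl-CoA formation was read by LC/MS/MS MRM against a [13C3]-malonyl-CoA internal standard, after acetic acid quench. The enzyme was baculovirus/Sf9-expressed human ACC2 residues 144–2458, given 15 minutes room-temperature compound preincubation in HEPES pH 7.5 buffer with MgCl2, citrate and DTT. Substrate solution held 50 μM acetyl-CoA, 120 μM ATP and 2 mM KHCO3.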
`Cn1c(-c2ccccc2)cc2ccc(S(=O)(=O)N[C@H]3CC[C@H](C(=O)N4CCNC(C(F)(F)F)C4)CC3)cc21` (some centres unmarked) [Example 324, 1-methyl-2-phenyl-N-((1r,4r)-4-(3-(trifluoromethyl)piperazine-1-carbonyl)cyclohexyl)-1H-indole-6-sulfonamide]: the IC50 amounted to 40 nM.

As for `C[C@@H](NC(=O)[C@H]1CC[C@H](NS(=O)(=O)c2cnc3ccccc3c2)CC1)c1ccc(Cl)cc1` [Example 57, (1r,4R)-N-((R)-1-(4-chlorophenyl)ethyl)-4-(quinoline-3-sulfonamido)cyclohexanecarboxamide], the IC50 amounted to 112 nM. Consider `Cn1c(-c2ccc(F)cc2)cc2ccc(S(=O)(=O)N[C@H]3CC[C@H](C(=O)N4CCCC(C(=O)O)C4)CC3)cc21` (some centres unmarked) [Example 346, 1-((1r,4r)-4-(2-(4-fluorophenyl)-1-methyl-1H-indole-6-sulfonamido)cyclohexanecarbonyl)piperidine-3-carboxylic acid], for which the IC50 is 265 nM. The result for `Cc1cc(CO)ccc1-c1cc2ccc(S(=O)(=O)N[C@H]3CC[C@H](C(=O)N[C@H](C)c4ccc(F)cc4)CC3)cc2[nH]1` [Example 302, (1r,4R)-N-((R)-1-(4-fluorophenyl)ethyl)-4-(2-(4-(hydroxymethyl)-2-methylphenyl)-1H-indole-6-sulfonamido)cyclohexanecarboxamide] reads less than 10 nM.

On to `COC(=O)C1CN(c2ccc3cc(S(=O)(=O)N[C@H]4CC[C@H](C(=O)N[C@H](C)c5ccc(F)cc5)CC4)ccc3n2)CCN1` (stereo partly drawn) [Example 242, methyl 4-(6-(N-((1R,4r)-4-((R)-1-(4-fluorophenyl)ethylcarbamoyl)cyclohexyl)sulfamoyl)quinolin-2-yl)piperazine-2-carboxylate], for which the IC50 came out at 195 nM. `CCOC(=O)C1(C)CCC(NS(=O)(=O)c2ccc3c(ccn3C)c2)CC1` (centres unmarked) [Example 391, ethyl 1-methyl-4-(1-methyl-1H-indole-5-sulfonamido)cyclohexanecarboxylate]: the IC50 turned out to be 760 nM. The result for `C[C@@H](NC(=O)[C@H]1CC[C@H](NS(=O)(=O)c2cnc3c(c2)NCCN3C)CC1)c1ccc(F)cc1` [Example 142, (1r,4R)-N-((R)-1-(4-fluorophenyl)ethyl)-4-(4-methyl-1,2,3,4-tetrahydropyrido[3,2-b]pyrazine-7-sulfonamido)cyclohexanecarboxamide] reads 68 nM.

Turning to `Cc1c(C2CC2)n(C)c2cc(S(=O)(=O)N[C@H]3CC[C@H](C(=O)N4CCOC[C@@H]4C)CC3)ccc12` [Example 32, 2-cyclopropyl-1,3-dimethyl-N-((1S,4r)-4-((S)-3-methylmorpholine-4-carbonyl)cyclohexyl)-1H-indole-6-sulfonamide], the IC50 worked out at 245 nM. On to `Cn1c(C2CC2)cc2ccc(S(=O)(=O)N[C@H]3CC[C@H](C(=O)N[C@@H](c4ccccc4)C(C)(C)C(=O)O)CC3)cc21` [Example 409, (S)-3-((1r,4S)-4-(2-cyclopropyl-1-methyl-1H-indole-6-sulfonamido)cyclohexanecarboxamido)-2,2-dimethyl-3-phenylpropanoic acid], for which the IC50 is less than 10 nM. On to `CCOc1ccc2cc(S(=O)(=O)N[C@H]3CC[C@H](C(=O)N[C@H](C)c4ccc(F)cc4)CC3)ccc2n1` [Example 36, (1r,4R)-4-(2-ethoxyquinoline-6-sulfonamido)-N—((R)-1-(4-fluorophenyl)ethyl)cyclohexanecarboxamide], for which the IC50 is 50 nM. Turning to `CN1CCN(c2ccc(-c3nc4cc(S(=O)(=O)N[C@H]5CC[C@H](C(=O)N6CCOCC6)CC5)ccc4[nH]3)cc2)CC1` [Example 583, 2-(4-(4-methylpiperazin-1-yl)phenyl)-N-((1r,4r)-4-(morpholine-4-carbonyl)cyclohexyl)-1H-benzo[d]imidazole-5-sulfonamide], the IC50 came out at 55 nM. Regarding `CC(C)OC(=O)c1ccc(NS(=O)(=O)c2ccc3[nH]c(Nc4ccc(N5CCOCC5)nc4)nc3c2)cc1` [Example 539, isopropyl 4-(2-(6-morpholinopyridin-3-ylamino)-1H-benzo[d]imidazole-5-sulfonamido)benzoate], the IC50 was 221 nM. In the case of `COCCOc1ccc(-c2cc3ccc(S(=O)(=O)N[C@H]4CC[C@H](C(=O)N5CCOC[C@@H]5C(C)C)CC4)cc3n2C)cc1` [Example 447, N-((1S,4r)-4-((S)-3-isopropylmorpholine-4-carbonyl)cyclohexyl)-2-(4-(2-methoxyethoxy)phenyl)-1-methyl-1H-indole-6-sulfonamide], the IC50 was found to be 25 nM.

As for `C[C@@H](NC(=O)[C@H]1CC[C@H](NS(=O)(=O)c2ccc3[nH]c([C@@H]4CC(F)(F)CN4)nc3c2)CC1)c1ccc(F)cc1` [Example 118, (1r,4R)-4-(2-((S)-4,4-difluoropyrrolidin-2-yl)-1H-benzo[d]imidazole-5-sulfonamido)-N-((R)-1-(4-fluorophenyl)ethyl)cyclohexanecarboxamide], the IC50 stood at 1750 nM. With `C[C@@H](NC(=O)[C@H]1CC[C@H](NS(=O)(=O)c2ccc3c(c2)ncn3C)CC1)c1ccc(F)cc1` [Example 109, (1r,4R)-N-((R)-1-(4-fluorophenyl)ethyl)-4-(1-methyl-1H-benzo[d]imidazole-5-sulfonamido)cyclohexanecarboxamide], the IC50 stood at 321 nM. The result for `CC(NC(=O)[C@H]1CC[C@H](NS(=O)(=O)c2cnc3ccccc3c2)CC1)c1cccc(F)c1` (some centres unmarked) [Example 44, (1r,4r)-N-(1-(3-fluorophenyl)ethyl)-4-(quinoline-3-sulfonamido)cyclohexanecarboxamide] reads 450 nM; that for `C[C@H]1COCCN1C(=O)[C@H]1CC[C@H](NS(=O)(=O)c2ccc3c(C#N)c(C4CC4)n(C)c3c2)CC1` [Example 414, 3-cyano-2-cyclopropyl-1-methyl-N-((1S,4r)-4-((S)-3-methylmorpholine-4-carbonyl)cyclohexyl)-1H-indole-6-sulfonamide], 80 nM; that for `C[C@@H](NC(=O)[C@H]1CC[C@H](NS(=O)(=O)c2ccc3nc(CCC(=O)O)ccc3c2)CC1)c1ccc(F)cc1` [Example 219, 3-(6-(N-((1R,4r)-4-((R)-1-(4-fluorophenyl)ethylcarbamoyl)cyclohexyl)sulfamoyl)quinolin-2-yl)propanoic acid], 495 nM.

Consider `C[C@H](NC(=O)[C@H]1CC[C@@H](NS(=O)(=O)c2cnc3c(c2)NCCN3)CC1)c1ccc(F)cc1` [Example 198, (1s,4S)-N-((R)-1-(4-fluorophenyl)ethyl)-4-(1,2,3,4-tetrahydropyrido[3,2-b]pyrazine-7-sulfonamido)cyclohexanecarboxamide], for which the half-maximal inhibitory concentration (IC50) is more than 35000 nM. Regarding `CCC(C)NC(=O)[C@H]1CC[C@H](NS(=O)(=O)c2ccc3[nH]c(-c4cccnc4)cc3c2)CC1` (some centres unmarked) [Example 286, (1r,4r)-N-sec-butyl-4-(2-(pyridin-3-yl)-1H-indole-5-sulfonamido)cyclohexanecarboxamide], the IC50 was 342 nM. With `C[C@@H](NC(=O)[C@H]1CC[C@H](NS(=O)(=O)c2ccc3nc(-c4cccnc4)ccc3c2)CC1)c1ccc(F)cc1` [Example 218, (1r,4R)-N-((R)-1-(4-fluorophenyl)ethyl)-4-(2-(pyridin-3-yl)quinoline-6-sulfonamido)cyclohexanecarboxamide], the IC50 stood at 20 nM. The result for `O=C(Nc1ccc2ncccc2c1)[C@H]1CC[C@H](NS(=O)(=O)c2ccc3[nH]c(-c4ccccc4)nc3c2)CC1` [Example 647, (1r,4r)-4-(2-phenyl-1H-benzo[d]imidazole-5-sulfonamido)-N-(quinolin-6-yl)cyclohexanecarboxamide] reads 726 nM; that for `COCCOc1ccc(-c2cc3ccc(S(=O)(=O)N[C@H]4CC[C@H](C(=O)N[C@H](CO)C5CC5)CC4)cc3n2C)cc1` [Example 449, (1r,4S)-N-((S)-1-cyclopropyl-2-hydroxyethyl)-4-(2-(4-(2-methoxyethoxy)phenyl)-1-methyl-1H-indole-6-sulfonamido)cyclohexanecarboxamide], 75 nM. Turning to `CCOc1ccc2cc(S(=O)(=O)N[C@H]3CC[C@H](C(=O)N[C@H](CC(=O)O)c4ccccc4)CC3)ccc2n1` [Example 228, (R)-3-((1r,4R)-4-(2-ethoxyquinoline-6-sulfonamido)cyclohexanecarboxamido)-3-phenylpropanoic acid], the IC50 came out at 213 nM. For the compound `C[C@@H](NC(=O)[C@H]1CC[C@H](NS(=O)(=O)c2ccc3c(c2)c(C#N)cn3C)CC1)c1ccc(F)cc1` [Example 88, (1r,4R)-4-(3-cyano-1-methyl-1H-indole-5-sulfonamido)-N-((R)-1-(4-fluorophenyl)ethyl)cyclohexanecarboxamide], the IC50 stood at 50 nM. As for `C[C@@H](NC(=O)[C@H]1CC[C@H](NS(=O)(=O)c2ccc3[nH]c(Nc4ccccc4)nc3c2)CC1)c1ccccc1` [Example 569, (1r,4R)-4-(2-(phenylamino)-1H-benzo[d]imidazole-5-sulfonamido)-N-((R)-1-phenylethyl)cyclohexanecarboxamide], the IC50 is less than 10 nM. With `C[C@H]1COCCN1C(=O)[C@H]1CC[C@H](NS(=O)(=O)c2ccc3cc(C4CC4)n(C)c3c2)CC1` [Example 422, 2-cyclopropyl-1-methyl-N-((1S,4r)-4-((S)-3-methylmorpholine-4-carbonyl)cyclohexyl)-1H-indole-6-sulfonamide], the IC50 was 285 nM.

Consider `C[C@@H](NC(=O)[C@H]1CC[C@H](NS(=O)(=O)c2ccc3nc(C#CCN4CCNCC4)ccc3c2)CC1)c1ccc(F)cc1` [Example 247, (1r,4R)-N-((R)-1-(4-fluorophenyl)ethyl)-4-(2-(3-(piperazin-1-yl)prop-1-ynyl)quinoline-6-sulfonamido)cyclohexanecarboxamide], for which the IC50 amounted to 30 nM. With `C[C@@H](NC(=O)[C@H]1CC[C@H](NS(=O)(=O)c2ccc3nc(OCC(C)(C)O)ccc3c2)CC1)c1ccc(F)cc1` [Example 81, (1r,4R)-N-((R)-1-(4-fluorophenyl)ethyl)-4-(2-(2-hydroxy-2-methylpropoxy)quinoline-6-sulfonamido)cyclohexanecarboxamide], the IC50 turned out to be 95 nM.

(Values after patent publication US8697739B2, “Bicyclic acetyl-CoA carboxylase inhibitors and uses thereof” (Novartis AG, priority 2010, dated 2014).)
